What is called IC50 is the concentration that inhibits the measured activity by half. For orientation: clearance means the volume of plasma or blood freed of the substance per unit of time. A word on the AUC(0-t): it is exposure summed from dosing to a finite time, without extrapolation to infinity. For orientation: Cmax means the highest concentration seen after dosing. The Vss is a proportionality between amount in the body and measured concentration, not a real space.

Data set [1] has as its system lung cancer cell line H1373 (high expression of PARP7). Put plainly: Lung cancer cell proliferation inhibition experiment (CTG method). The data set is classed as cell-based. The note with it: H1373 cells, 144 hrs incubation, Cell Titer Glo.
The target of data set [2] is PARP7 enzyme (Homo sapiens (Human), UniProt Q7Z3E1). Put plainly: PARP7 enzymatic experiment (HTRF assay). It is filed as biochemical. The note with it: 4PL fit.
The nature of data set [3]: Mouse pharmacokinetic study. It is filed as in vivo. The note with it: Balb/c mouse; for clearance / Vd: iv; for Vd: read-out: Vss; for bioavailability: read-out: Oral BA (F %).
Where [4] appears, read: plasma, oral, 100 mg/kg p.o. vs 3 mg/kg i.v.
Setting [5] is: plasma, po, single 100 mg/kg, p.o., read-out: Cmax.
Setting [6] is: plasma, po, 100 mg/kg p.o. vs 3 mg/kg i.v.

Read-outs that look alike come from different tables or passages of the source.

PARP7 enzyme, sequence (Q7Z3E1 456-657): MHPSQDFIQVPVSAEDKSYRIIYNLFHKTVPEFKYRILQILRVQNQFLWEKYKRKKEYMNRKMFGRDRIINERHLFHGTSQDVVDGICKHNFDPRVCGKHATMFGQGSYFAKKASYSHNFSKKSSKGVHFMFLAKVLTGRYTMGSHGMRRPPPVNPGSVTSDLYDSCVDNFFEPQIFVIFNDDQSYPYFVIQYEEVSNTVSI

Regarding `C[C@@H](COCCC(=O)N1CCN2c3ncc(Cl)cc3N(C)C(=O)[C@@H]2C1)Nc1cn[nH]c(=O)c1C(F)(F)F` (single isomer, unassigned) [Compound 20A], the IC50 in data set [1] (Homo sapiens, NCI-H1373, 144 h) came to 0.0539 µM; in data set [2] it was 0.00151 µM. In data set [3], the “pharmacokinetic properties (in words)” value is listed as “good pharmacokinetic properties”.
For the molecule `C[C@@H](COCCC(=O)N1CCN2c3ncc(C(F)(F)F)cc3SCC[C@@H]2C1)Nc1cn[nH]c(=O)c1C(F)(F)F` (single isomer, unassigned) [Compound 71A], the IC50 in data set [1] was 0.0139 µM; in data set [2], 0.00153 µM. Besides, the “pharmacokinetic properties (in words)” value in data set [3] was “good pharmacokinetic properties”.
For the molecule `C[C@@H](COCCC(=O)N1CCN2c3ncc(C(F)(F)F)cc3OC[C@@H]2C1)Oc1cn[nH]c(=O)c1C(F)(F)F` [Compound 51], the IC50 in data set [1] (Homo sapiens, NCI-H1373) stood at 0.0346 µM. The same molecule returned a clearance in data set [3] (plasma, single 3 mg/kg) of 22 mL/min/kg. For the same molecule, in data set [3] (plasma, single 3 mg/kg, i.v.), the Vd worked out at 0.5 L/kg. The bioavailability in data set [3] (setting [4]) was found to be 121%. Moreover, in data set [3] (plasma, po, single 100 mg/kg), the area under the curve AUC(0-t) stood at 91400 ng·h/mL. For the same molecule, the Cmax in data set [3] (setting [5]) was determined as 38200 ng/mL.
For the molecule `Cc1c(Cl)cnc2c1OCC[C@@H]1CN(C(=O)CCOC[C@H](C)Oc3cn[nH]c(=O)c3C(F)(F)F)CCN21` (single isomer, unassigned) [Compound 85A], it took 0.0207 µM to reach half-maximal inhibition in data set [1] (Homo sapiens, NCI-H1373, 144 h) (IC50). The molecule further had a clearance in data set [3] (plasma, single 3 mg/kg) of 60 mL/min/kg. The Vd in data set [3] (plasma, single 3 mg/kg, i.v.) came out at 0.5 L/kg. In addition, the bioavailability in data set [3] (setting [6]) turned out to be 301%. This molecule also registered an area under the curve AUC(0-t) in data set [3] (plasma, po, single 100 mg/kg) of 86100 ng·h/mL. Also, the highest concentration (Cmax) in data set [3] (setting [5]) turned out to be 24200 ng/mL.
As to `CCN1c2ncc(Cl)cc2OCC[C@@H]1CNC(=O)CCOC[C@@H](C)Oc1cn[nH]c(=O)c1C(F)(F)F` (single isomer, unassigned) [Compound 84A], inhibition in data set [1] was half-maximal at 0.0215 µM (IC50). The molecule also returned an IC50 in data set [2] of 0.00101 µM. Moreover, in data set [3] (100 mg/kg p.o. vs 3 mg/kg i.v.), the “Oral BA (F %)” value turned out to be 106%. Also, in data set [3] (single 3 mg/kg, i.v.), the CL was 41 mL/min/kg and the Vss worked out at 0.5 L/kg. In data set [3] (single 100 mg/kg, p.o.), the AUClast turned out to be 43382 ng·h/mL and the Cmax worked out at 15033 ng/mL.
In data set [2], `C[C@@H](COCCC(=O)N1CCN2c3nc(F)c(Cl)cc3N(C)C(=O)[C@@H]2C1)Nc1cn[nH]c(=O)c1C(F)(F)F` [Compound 14A] showed an IC50 of 0.0106 µM. In data set [3], the “pharmacokinetic properties (in words)” value was “good pharmacokinetic properties”.
In the case of `Cc1c2n(c3ncc(C(F)(F)F)cc13)CCN(C(=O)CCOC[C@H](C)Oc1cn[nH]c(=O)c1C(F)(F)F)C2` [Compound 45], it took 0.013 µM to reach half-maximal inhibition in data set [1] (Homo sapiens, NCI-H1373, 144 h) (IC50). Moreover, the “pharmacokinetic properties (in words)” value in data set [3] was “good pharmacokinetic properties”.
Molecule `CC(C)N1C(=O)[C@@H]2CN(C(=O)CCOC[C@H](C)Nc3cn[nH]c(=O)c3C(F)(F)F)CCN2c2ncc(C(F)(F)F)cc21` (single isomer, unassigned) [Compound 24A] came in with an IC50 in data set [2] of 0.00207 µM. In addition, the “pharmacokinetic properties (in words)” value in data set [3] is “good pharmacokinetic properties”.
Regarding `C[C@@H](COCCC(=O)N1CCn2c(cc3cc(C(F)(F)F)cnc32)C1)Oc1cn[nH]c(=O)c1C(F)(F)F` [Compound 47A], half-maximal inhibition in data set [1] (Homo sapiens, NCI-H1373, 144 h) (IC50) required 0.0609 µM. The clearance in data set [3] (plasma, single 3 mg/kg) was 16 mL/min/kg. Besides, the Vd in data set [3] (plasma, single 3 mg/kg, i.v.) was 0.5 L/kg. In data set [3] (setting [4]), the bioavailability is 90%. In data set [3] (plasma, po, single 100 mg/kg), this molecule returned an AUC(0-t) of 95200 ng·h/mL. In addition, the Cmax in data set [3] (setting [5]) is 41100 ng/mL.
`C[C@@H](COCCC(=O)N1CCN2c3ncc(C(F)(F)F)cc3SCC[C@@H]2C1)Oc1cn[nH]c(=O)c1C(F)(F)F` [Compound 86A]: the IC50 is 0.0119 µM in data set [1] (Homo sapiens, NCI-H1373, 144 h) and 0.0025 µM in data set [2]. This molecule also displayed a clearance in data set [3] (plasma, single 3 mg/kg) of 54 mL/min/kg. The Vd in data set [3] (plasma, single 3 mg/kg, i.v.) is 1.4 L/kg. In data set [3] (setting [6]), the bioavailability amounted to 66%. In addition, the area under the curve AUC(0-t) in data set [3] (plasma, po, single 100 mg/kg) was found to be 20300 ng·h/mL. Further, in data set [3] (setting [5]), the Cmax came out at 7860 ng/mL.
On to `C[C@H](COCCC(=O)N1CCN2c3ncc(Cl)cc3N(C)C(=O)[C@@H]2C1)Nc1cn[nH]c(=O)c1C(F)(F)F` [Compound 82A], for which the IC50 in data set [1] (Homo sapiens, NCI-H1373, 144 h) came out at 0.0475 µM; in data set [2], 0.000744 µM. The molecule also had a clearance in data set [3] (plasma, single 3 mg/kg) of 32 mL/min/kg. Also, the Vd in data set [3] (plasma, single 3 mg/kg, i.v.) was found to be 0.4 L/kg. Moreover, the bioavailability in data set [3] (setting [6]) stood at 48%. The same molecule registered an AUC(0-t) in data set [3] (plasma, po, single 100 mg/kg) of 26400 ng·h/mL. In data set [3] (setting [5]), the Cmax amounted to 21700 ng/mL.
Take `O=C(CCOC[C@@H]1CCN1c1cn[nH]c(=O)c1C(F)(F)F)N1CCN2c3ncc(C(F)(F)F)cc3C(F)(F)C[C@H]2C1` [Compound 93B]: the IC50 in data set [1] (Homo sapiens, NCI-H1373, 144 h) turned out to be 0.0104 µM; in data set [2], 0.00209 µM.

Values taken from US20240336629A1, “Tricyclic Derivatives Useful As PARP7 Inhibitors” (JACOBIO PHARMACEUTICALS CO., LTD., priority 2021, published 2024).
